Patent US6355799B1, “Substituted benzene compounds, process for their preparation, and herbicidal and defoliant compositions containing them” (ISK Americas Incorporated, priority 1997, dated 2002)

Key:
Type in all cases: in vivo
[1] = system: redroot pigweed (Amaranthus retroflexus, AMARE); assay: Pre-emerge test, greenhouse herbicide activity screening; conditions: phytotoxicity rating 0-100, 14 days after application
How it was run: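 Visual ratings on a 0-100 scale (0 no damage, 100 all plants dead) were taken at 14 days after treatment. Rates of 15-1000 g ai/ha in acetone, 187 l/ha, were sprayed onto soil one day after planting (pre-emerge) or onto 2-3 leaf plants with 0.25% v/v surfactant (post-emerge).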

[2] = system: barnyardgrass (Echinochloa crus-galli, ECHCG); assay: as above; conditions: phytotoxicity rating 0-100, 14 days after application
How it was run: (§1)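 Compounds in acetone were track-sprayed at 15-1000 g ai/ha (187 l/ha) on sandy loam pots: pre-emerge one day after seeding, post-emerge at 2-3 leaf stage with 0.25% v/v non-ionic surfactant. Phytotoxicity was rated 14 days later on a 0 (no damage) to 100 (complete death) scale.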

[3] = system: common ragweed (Ambrosia artemisizfolia L., AMBEL); assay: as above; conditions: phytotoxicity rating 0-100, 14 days after application
How it was run: as §1

[4] = system: green foxtail (Setaria viridis, SETVI); assay: as above; conditions: phytotoxicity rating 0-100, 14 days after application
How it was run: as §1

[5] = system: ivyleaf morningglory (Ipomoea hederacea, IPOHE); assay: as above; conditions: phytotoxicity rating 0-100, 14 days after application
How it was run: as §1

[6] = system: johnsongrass (Sorghum halepense, SORHA); assay: as above; conditions: phytotoxicity rating 0-100, 14 days after application
How it was run: as §1

[7] = system: lambsquarters (Chenopodium album, CHEAL); assay: as above; conditions: phytotoxicity rating 0-100, 14 days after application
How it was run: as §1

[8] = system: large crabgrass (Digitaria sanguinalis, DIGSA); assay: as above; conditions: phytotoxicity rating 0-100, 14 days after application
How it was run: as §1

[9] = system: sicklepod (Cassia obtusifolia, CASOB); assay: as above; conditions: phytotoxicity rating 0-100, 14 days after application
How it was run: as §1

[10] = system: velvetleaf (Abutilon theophrasti, ABUTH); assay: as above; conditions: phytotoxicity rating 0-100, 14 days after application
How it was run: as §1

[11] = system: field corn (Zea mays L., var. Dekalb 535, CORN); assay: Pre-emerge test, crop safety; conditions: crop damage rating 0-100, 14 days after application
How it was run: (§2)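 Rating: 0–100 visual injury, 14 DAA. Application: acetone, 187 l/ha, 15–1000 g ai/ha, flat-fan track sprayer with nozzle 40–45 cm above soil or canopy. Post-emerge runs used 0.25% v/v surfactant on 2–3 leaf plants.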

[12] = system: upland rice (Oryza sp., var. Tebonnet, RICE); assay: Pre-emerge test, crop safety; conditions: crop damage rating 0-100, 14 days after application
How it was run: as §2

[13] = system: barnyardgrass (Echinochloa crus-galli, ECHCG); assay: Post-emerge test, greenhouse herbicide activity screening; conditions: post-emerge, 14 days after application, rating scale 0-100
How it was run: (§3)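 Fourteen days after spraying, crop and weed injury was graded visually from 0, no effect, to 100, every plant dead. Test substances were dissolved in acetone and applied at 15–1000 g ai/ha with a flat-fan nozzle. Application was either pre-emergence, one day after sowing, or post-emergence at the 2–3 leaf stage.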

[14] = system: common ragweed (Ambrosia artemisizfolia L., AMBEL); assay: as above; conditions: post-emerge, 14 days after application, rating scale 0-100
How it was run: as §3

[15] = system: green foxtail (Setaria viridis, SETVI); assay: as above; conditions: post-emerge, 14 days after application, rating scale 0-100
How it was run: as §3

[16] = system: ivyleaf morningglory (Ipomoea hederacea, IPOHE); assay: as above; conditions: post-emerge, 14 days after application, rating scale 0-100
How it was run: as §3

[17] = system: johnsongrass (Sorghum halepense, SORHA); assay: as above; conditions: post-emerge, 14 days after application, rating scale 0-100
How it was run: as §3

[18] = system: lambsquarters (Chenopodium album, CHEAL); assay: as above; conditions: post-emerge, 14 days after application, rating scale 0-100
How it was run: as §3

[19] = system: large crabgrass (Digitaria sanguinalis, DIGSA); assay: as above; conditions: post-emerge, 14 days after application, rating scale 0-100
How it was run: as §3

[20] = system: redroot pigweed (Amaranthus retroflexus, AMARE); assay: as above; conditions: post-emerge, 14 days after application
How it was run: as §3

[21] = system: sicklepod (Cassia obtusifolia, CASOB); assay: as above; conditions: post-emerge, 14 days after application, rating scale 0-100
How it was run: as §3

[22] = system: velvetleaf (Abutilon theophrasti, ABUTH); assay: as above; conditions: post-emerge, 14 days after application, rating scale 0-100
How it was run: as §3

[23] = system: field corn (Zea mays L., var. Dekalb 535, CORN); assay: Post-emerge test, crop safety; conditions: post-emerge, 14 days after application, rating scale 0-100
How it was run: as §1

[24] = system: upland rice (Oryza sp., var. Tebonnet, RICE); assay: Post-emerge test, crop safety; conditions: post-emerge, 14 days after application, rating scale 0-100
How it was run: as §1

Cn1c(C(F)(F)F)cc(=O)n(-c2ccc(C(N)=S)cc2NC(=O)c2ccc3ccccc3c2)c1=O [2-205]
Pre-emerge Herbicidal Activity AMARE ([1]; 63 g ai/ha): 100
Pre-emerge Herbicidal Activity AMARE ([1]; 250 g ai/ha): 100
Pre-emerge Herbicidal Activity ECHCG ([2]; 63 g ai/ha): 80
Pre-emerge Herbicidal Activity ECHCG ([2]; 250 g ai/ha): 99
Pre-emerge Herbicidal Activity AMBEL ([3]; 63 g ai/ha): 80
Pre-emerge Herbicidal Activity AMBEL ([3]; 250 g ai/ha): 90
Pre-emerge Herbicidal Activity SETVI ([4]; 63 g ai/ha): 70
Pre-emerge Herbicidal Activity SETVI ([4]; 250 g ai/ha): 100
Pre-emerge Herbicidal Activity IPOHE ([5]; 63 g ai/ha): 0
Pre-emerge Herbicidal Activity IPOHE ([5]; 250 g ai/ha): 95
Pre-emerge Herbicidal Activity SORHA ([6]; 63 g ai/ha): 40
Pre-emerge Herbicidal Activity SORHA ([6]; 250 g ai/ha): 85
Pre-emerge Herbicidal Activity CHEAL ([7]; 63 g ai/ha): 100
Pre-emerge Herbicidal Activity CHEAL ([7]; 250 g ai/ha): 100
Pre-emerge Herbicidal Activity DIGSA ([8]; 63 g ai/ha): 70
Pre-emerge Herbicidal Activity DIGSA ([8]; 250 g ai/ha): 99
Pre-emerge Herbicidal Activity CASOB ([9]; 63 g ai/ha): 0
Pre-emerge Herbicidal Activity CASOB ([9]; 250 g ai/ha): 40
Pre-emerge Herbicidal Activity ABUTH ([10]; 63 g ai/ha): 100
Pre-emerge Herbicidal Activity ABUTH ([10]; 250 g ai/ha): 100
Pre-emerge Herbicidal Activity CORN ([11]; 63 g ai/ha): 0
Pre-emerge Herbicidal Activity CORN ([11]; 250 g ai/ha): 50
Pre-emerge Herbicidal Activity RICE ([12]; 63 g ai/ha): 20
Pre-emerge Herbicidal Activity RICE ([12]; 250 g ai/ha): 70
phytotoxicity rating ECHCG ([13]; 63 g ai/ha): 0
phytotoxicity rating ECHCG ([13]; 250 g ai/ha): 0
phytotoxicity rating AMBEL ([14]; 63 g ai/ha): 70
phytotoxicity rating AMBEL ([14]; 250 g ai/ha): 100
phytotoxicity rating SETVI ([15]; 63 g ai/ha): 10
phytotoxicity rating SETVI ([15]; 250 g ai/ha): 10
phytotoxicity rating IPOHE ([16]; 63 g ai/ha): 100
phytotoxicity rating IPOHE ([16]; 250 g ai/ha): 70
phytotoxicity rating SORHA ([17]; 63 g ai/ha): 0
phytotoxicity rating SORHA ([17]; 250 g ai/ha): 0
phytotoxicity rating CHEAL ([18]; 63 g ai/ha): 70
phytotoxicity rating CHEAL ([18]; 250 g ai/ha): 70
phytotoxicity rating DIGSA ([19]; 63 g ai/ha): 10
phytotoxicity rating DIGSA ([19]; 250 g ai/ha): 10
phytotoxicity rating AMARE ([20]; 63 g ai/ha, rating scale 0-100 (0 no damage, 100 complete death)): 90
phytotoxicity rating AMARE ([20]; 250 g ai/ha, rating scale 0-100): 40
phytotoxicity rating CASOB ([21]; 63 g ai/ha): 90
phytotoxicity rating CASOB ([21]; 250 g ai/ha): 100
phytotoxicity rating ABUTH ([22]; 63 g ai/ha): 100
phytotoxicity rating ABUTH ([22]; 250 g ai/ha): 100
phytotoxicity rating CORN (crop damage) ([23]; 63 g ai/ha): 10
phytotoxicity rating CORN (crop damage) ([23]; 250 g ai/ha): 20
phytotoxicity rating RICE (crop damage) ([24]; 63 g ai/ha): 30
phytotoxicity rating RICE (crop damage) ([24]; 250 g ai/ha): 30
